4 compounds from US20260258397A1, “REAGENTS AND SYSTEMS FOR […]” (priority 2023, published 2026) can be followed below.

By EC50 is commonly meant the concentration needed to bring the measured effect to its halfway point.

Values joined by “and” are separate entries in the source; they are usually repeats but may differ in a detail not shown here. Equal values may be shown once. Read-outs that look alike come from different tables or passages of the source.

The target of experiment [1] is T1, PYR1^4F-M (Arabidopsis thaliana, UniProt O49686, A160G/F159V/H115Q/H60P/N90S/Y120G).
T1 construct: made in house; host or cells: E. coli
T1 sequence (O49686 whole entry H60P/N90S/H115Q/Y120G/F159V/A160G, other chains not shown): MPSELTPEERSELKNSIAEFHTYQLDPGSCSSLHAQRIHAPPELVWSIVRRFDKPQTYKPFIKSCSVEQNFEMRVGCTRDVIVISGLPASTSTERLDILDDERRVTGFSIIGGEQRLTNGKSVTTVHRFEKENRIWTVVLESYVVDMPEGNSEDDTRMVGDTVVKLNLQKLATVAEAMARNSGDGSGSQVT
As to the kind of experiment: PYR1 ELISA-like plate assay, immobilized PYR1^4F-M with biotinylated ΔN-HAB1^T+. In kind it is binding. The conditions noted are these: PYR1^4F-M ELISA-like format. How it is done: PYR1 was immobilized overnight in clear plates, blocked with KPL milk diluent in buffer CBS ^17 (CBSM). All binding reactions were performed using CBSM. Detection was performed via binding a streptavidin-HRP conjugate to biotinylated ΔN-HAB1^T+ followed by incubation with a commercial TMB reagent. Lower limits of detection (LODs) were determined by linear regression of the response data in the low linear range using the formula LOD=3σy/m, where m is the slope of the response line and σy is the standard error of the y intercept using data combined from biological replicates.
Unconjugated 6×His-MBP-PYR1 variants were immobilized to Microlon clear plates (655081) using 100 μL of CBS without pH modification, at a protein concentration of 100 μg mL^−1, or 1.57 AM at 4° C. overnight. Wells assigned as no PYR controls received only CBS. Plates were sealed using Microseal B adhesive sealers (BioRad MSB-1001). […] The pellet was stored on ice until the blocked and washed plates were ready to receive the binding reactions. ΔN-HAB1^T+ was exchanged into CBSM with 1 mM DTT and 1 mM TCEP (CBSM++) using Zeba™ spin desalting columns (Thermo) were equilibrated with CBSM++. ΔN-HAB1^T+ was diluted to 10× the final binding reaction concentration and was immediately added to the pre-assembled assays in PCR plates, which were mixed by pipetting and transferred to the washed, blocked Microlon plates. […]

The target of experiment [2] is T2, PYR1^PIRI (Arabidopsis thaliana, UniProt O49686, A160T/E130G/F159T/K59R/N119S/S122Q/S92M/V174A).
T2 construct: expressed in transfected cells; host or cells: S. cerevisiae (2µ plasmid)
T2 sequence (O49686 1-191 K59R/S92M/N119S/S122Q/E130G/F159T/A160T/V174A): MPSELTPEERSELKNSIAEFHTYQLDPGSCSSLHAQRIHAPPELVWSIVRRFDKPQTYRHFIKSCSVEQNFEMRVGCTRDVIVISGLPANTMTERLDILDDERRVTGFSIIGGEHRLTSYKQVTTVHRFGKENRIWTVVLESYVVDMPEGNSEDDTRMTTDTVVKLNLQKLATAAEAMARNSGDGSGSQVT
T2 sequence (Q9CAJ0 178-511 partner): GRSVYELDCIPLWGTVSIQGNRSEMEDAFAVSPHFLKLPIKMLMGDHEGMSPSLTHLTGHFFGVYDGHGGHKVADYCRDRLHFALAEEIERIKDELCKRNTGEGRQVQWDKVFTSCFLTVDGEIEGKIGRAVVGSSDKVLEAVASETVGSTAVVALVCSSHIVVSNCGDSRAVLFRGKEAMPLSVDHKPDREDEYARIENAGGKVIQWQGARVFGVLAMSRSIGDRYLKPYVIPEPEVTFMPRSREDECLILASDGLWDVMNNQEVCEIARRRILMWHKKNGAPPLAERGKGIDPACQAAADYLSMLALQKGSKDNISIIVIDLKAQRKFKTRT
The experiment in a line: cell-based. The note with it: for Bottom: fit bottom of GFP fluorescence response; for Top: fit top of GFP fluorescence response. The source says: (§1) PYR1 variants were used to drive gene expression in an inducible genetic circuit by fusing a zinc finger DNA binding domain (Z4^32) to the N-terminus of PYR1, and the VP64 activation domain 33 to the N-terminus of ΔN-HAB1. The SV40 nuclear localization signal was also fused to the N-terminus of PYR1. A single 2u plasmid was used to express SV40-Z4DBD-PYR1 and VP64-HAB1, while the GFP expression cassette (Z44-CYCcore-GFP-CYC 1term) was integrated at the YPRCΔ15 site on chromosome XVI. GFP fluorescence induced by each circuit was measured 12 h after ligand addition to 1 mL cultures, 30° C. Fluorescence was measured by flow cytometry. Briefly, 50 μL of resuspended cells were transferred to a 96-well plate for analysis. The fluorescence intensity of each cell was measured using a BD Accuri C6 flow cytometer equipped with auto-loading. The forward scatter, side scatter, and GFP fluorescence (Ex/Em 488/533 nm) were recorded for a minimum of 10,000 events.
(§2) Transformed yeast cells were acquired by first inoculating 5 mL of liquid media and incubating in a shaker incubator overnight at 30° C. Cells from the overnight culture were then used to inoculate a 50 mL culture with an initial cell density of 5×10^6 cells/mL. This culture was grown at 30° C. with 200 rpm shaking until ~2×10^7 cells/mL were produced, approximately 3 to 5 hours. Cells were harvested by centrifugation at 4000 rpm for 5 min, washed with 25 mL sterile, deionized water, resuspended in 1 mL of 100 mM LiAc, and transferred to a 1.5 mL tube, producing a cell suspension with approximately 10^9 cells/mL. The cell suspension was briefly mixed by vortexing and 100 μL was transferred into a clean 1.5 mL tube for each transformation. Cells were pelleted at 13000 rpm for 15 sec and the supernatant was removed. A transformation mixture of 240 μL PEG (50% w/v), 36 μL 1.0 M LiAc, 50 μL salmon sperm DNA (2.0 mg/ml), plasmid, and sterile water were added to the cell pellet and mixed by vortexing for 1 min (total volume of 360 μL). The mixed transformation solution was then heat shocked at 42° C. for 40 min. Post heat-shock, cells were recovered by centrifugation at 8000 rpm for 30 sec. Cells resuspended in 400 μL sterile water were plated on appropriate selection media, in this case agar-SD media without uracil. Plates were incubated at 30° C. until mature colonies were formed.
(§3) Three single transformants were picked from selection plates, inoculated in 2 mL of SD-Ura containing 2% glucose in 14 mL culture tubes. After 24 hours of growth at 30° C. in a shaker incubator (200 rpm), the OD600 of each sample was measured and cultures were back diluted to OD600=0.2 in fresh SD-Ura, the total volume of diluted culture was 9 mL. Each 9 mL culture was separated into 8 unique cultures by transferring 1 mL into 8 different wells of a 96 deep-well plate. Each well was used to evaluate the effect of a specific concentration of ligand. After all the cultures were transferred, 1 μL of stock ligand solution (each stock varying in concentration) was added to each well. The plate was sealed with an air-breathable polymer film and cultured with 1000 rpm shaking at 30° C. for 12 hours. Shaker humidity was maintained at 90%. Cells were harvested by centrifuge at 5000 g for 10 min, and after discarding the supernatant, the cells were suspended in 1 mL PBS buffer and centrifuged at 5000 g for 10 min. The cells were washed with 1 mL PBS buffer twice and resuspended in 1 mL DI water for flow cytometry analysis. For flow cytometry analysis, 50 μL of resuspended cells were transferred to a 96-well plate with flat bottom, adding DI water up to final volume 200 μL. The fluorescence intensity of cells within each sample was measured using a BD Accuri C6 flow cytometer equipped with auto-loading from 96 well plates. The forward scatter, side scatter, and GFP fluorescence (Ex/Em 488/533 nm) were recorded for a minimum of 10,000 events.

Experiment [3] has as its target T3, PYR1^DIAZI (Arabidopsis thaliana, UniProt O49686, A160V/E8G/F108Y/F159G/L87M/M158V/V81Y).
T3 construct: expressed in transfected cells; host or cells: S. cerevisiae (2µ plasmid)
T3 sequence (O49686 1-191 E8G/V81Y/L87M/F108Y/M158V/F159G/A160V): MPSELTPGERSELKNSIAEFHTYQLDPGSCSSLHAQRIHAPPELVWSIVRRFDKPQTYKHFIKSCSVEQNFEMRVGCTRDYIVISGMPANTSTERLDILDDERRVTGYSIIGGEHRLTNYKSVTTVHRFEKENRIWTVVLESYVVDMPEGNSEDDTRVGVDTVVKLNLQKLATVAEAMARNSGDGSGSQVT
T3 sequence (Q9CAJ0 178-511 partner): T2 sequence (Q9CAJ0 178-511 partner)
The experiment in a line: cell-based. The conditions noted are these: for Bottom: fit bottom of GFP fluorescence response; for Top: fit top of GFP fluorescence response.
Excerpt: as §1, §2, §3

Experiment [4] has as its system PYR1 mutant receptors (ligand-dependent binding to HAB1). As to the kind of experiment: Yeast two-hybrid screens and optimization for organophosphate sensors. The experiment is classed as cell-based, Arabidopsis. The note with it: after four rounds of recombination-based mutagenesis (PYR1^DIAZI, PYR1^PIRI). How it is done:
Surviving cells were collected and used in subsequent positive selections for ligand-responsive receptors on SD,-Leu,-Trp,-Ura media supplemented with a specific test chemical (100 μM) for responsiveness to any of the 10-member panel of organophosphate compounds: diazinon, pirimiphos-methyl, azinphos-ethyl, dimethoate, chlorfenvinphos, disulfoton, parathion-methyl, bromophos-methyl, malathion, and monocrotophos; all compounds were purchased form (Sigma-Aldrich). Isolated colonies were tested by regrowth on ligand-containing media and by dose response using X-gal staining and Sanger sequenced (see FIG. 13a-d).
Recombination-based mutagenesis of hit receptors was used to generate subsequent molecular diversity for selection-based optimization experiments, using the same general strategy across all scaffolds utilized. […] The resulting shuffled DNA fragments were cloned into pBD, transformed into E. coli, colonies collected, and plasmids extracted.

Experiment [5] relates to HAB1. As to the kind of experiment: Y2H X-gal staining of evolved sensors: ligand responsiveness and cross reaction. The experiment is classed as cell-based, Arabidopsis. The note with it: ligands WIN 55,212-2, 4F-MDMB-BUTINACA, AB-PINACA, JWH-072; PYR1^JWH-072 to low μM WIN 55,212-2, PYR1^4F to low μM AB-PINACA. The procedure:
High-affinity sensors were tested for cross reaction using both Y2H and in vitro PP2C assays. […] Similar methods were used to characterize PYR1^PIRI and PYR1^WIN sensor selectivity and sensitivity.
The PYL2 coding sequence cloned in the Y2H pBD vector was used as template to incorporate the corresponding PYR1^WIN and PYR1^4F homologous residues via site directed mutagenesis using the QuikChange Lightning Multi Site-Directed mutagenesis kit (Agilent Technologies). Resulting clones PYL2^WIN (K64Q, F165A, V1661) and PYL2^4F (H119Q, Y124G, F165V, V166G) were sequence confirmed and incorporated into MAV99 harboring pACT-HAB1 and tested for ligand activation using uracil-independent growth and X-gal staining experiments. The same method was used to generate a PYL2^WIN version in a protein expression vector for crystallization studies.

As to `COC(=O)[C@@H](NC(=O)c1nn(CCCCF)c2ccccc12)C(C)(C)C` [4F-MDMB, 4F-MDMB-BUTINACA], the “average LOD from two biological replicates” value in experiment [1] was 6 nM and 2.2 ng/ml.

For the compound `CCOP(=S)(OCC)Oc1cc(C)nc(C(C)C)n1` [Diazinon, diazinon], the Bottom in experiment [2] (PYR1-PIRI) turned out to be 19123; in experiment [3] (PYR1-DIAZI), 17196. The Top in experiment [2] (PYR1-PIRI) worked out at 109997; in experiment [3] (PYR1-DIAZI), 103999. The EC50 was determined as 1010 nM in experiment [2] (PYR1-PIRI, no unit in table (text b82 gives the same values in nM/μM), read-out: EC50); 1000 nM in experiment [2] (PYR1^PIRI, yeast-transcription circuit, strongest off-target response, read-out: EC50); 43.1 nM in experiment [3] (PYR1-DIAZI, no unit in table (text b82 gives the same values in nM), read-out: EC50); 43 nM in experiment [3] (PYR1^DIAZI, yeast-transcription circuit, read-out: EC50). In experiment [2] (PYR1^PIRI, off-target diazinon versus pirimiphos), the “EC50 higher than that with pirimiphos” value is recorded as 50 fold. Moreover, the “EC50 to diazinon lower than all other molecules profiled” value in experiment [3] (PYR1^DIAZI, selectivity versus panel of chemically similar organophosphates) is “greater than 10 fold”. For the same compound, the “ligand concentration to which optimized sensors respond” value in experiment [4] is 10 nM.

Regarding `CCN(CC)c1nc(C)cc(OP(=S)(OC)OC)n1` [Pirimiphos, pirimiphos-methyl], the results for the EC50 in experiment [2] and in experiment [3] were 20 nM and 17400 nM, respectively. Besides, the Bottom in experiment [2] (PYR1-PIRI) worked out at 12745; in experiment [3] (PYR1-DIAZI), 14673. Also, the figures for the Top in experiment [2] (PYR1-PIRI) and in experiment [3] (PYR1-DIAZI) were 105951 and 88148, respectively. In addition, the “ligand concentration to which optimized sensors respond” value in experiment [4] amounted to 10 nM.

As for “PYR1^JWH-072: PYR1 variant sensor for JWH-072; cannabinoid receptor sequence (MPSGLTPEERSELKNSIAEFHTYQLDPGSCSSLHAQRIHAPPELVWSIVRRFDKPQTYN)”, the “cross-reactivity to off-target cannabinoid ligands” value in experiment [5] is “modest cross-reactivity”.
